Data from patent publication US9422308B2, “Derivatives of docosahexaenoylethanolamide and uses thereof” (The United States of America, as represented by the …, priority 2012, dated 2016).
Values joined by “and” are separate entries in the source; they are usually repeats but may differ in a detail not shown here. Equal values may be shown once.

Experiments:
[1] = molecular target: T1, FAAH (Homo sapiens, UniProt O00519); assay: time course FAAH enzyme assay; assay type: in vitro ADME; details: Conc. 1 mM, 0.1 U of FAAH, 37° C., pH=9.0
T1 sequence (O00519 1-579): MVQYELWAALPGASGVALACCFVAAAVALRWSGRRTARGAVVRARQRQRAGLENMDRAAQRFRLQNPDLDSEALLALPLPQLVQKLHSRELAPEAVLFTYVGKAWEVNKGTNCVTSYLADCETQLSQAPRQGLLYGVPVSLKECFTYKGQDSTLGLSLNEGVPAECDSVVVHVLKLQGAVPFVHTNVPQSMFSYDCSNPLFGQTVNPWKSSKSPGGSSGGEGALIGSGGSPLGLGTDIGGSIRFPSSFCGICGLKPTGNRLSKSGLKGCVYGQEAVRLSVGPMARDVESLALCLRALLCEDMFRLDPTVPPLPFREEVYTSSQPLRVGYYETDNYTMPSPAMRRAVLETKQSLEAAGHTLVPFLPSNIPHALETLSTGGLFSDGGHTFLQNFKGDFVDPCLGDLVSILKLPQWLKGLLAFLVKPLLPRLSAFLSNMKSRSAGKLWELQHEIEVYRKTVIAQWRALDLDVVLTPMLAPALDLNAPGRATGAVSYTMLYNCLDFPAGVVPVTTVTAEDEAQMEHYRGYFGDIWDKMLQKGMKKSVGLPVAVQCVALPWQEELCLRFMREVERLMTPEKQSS
Experimental: Method development: The signal was optimized for each compound by ESI positive or negative ionization mode. A MS2 SIM scan was used to optimize the precursor ion and a product ion analysis was used to identify the best fragment for analysis and to optimize the collision energy.
Analysis: Samples were analyzed by LC/MS/MS using a API 3000 coupled with an Shimadzu HPLC and a CTC PAL chilled autosampler, all […] controlled by Analyst software (ABI). After separation on a C18 reverse phase HPLC column (Agilent, Waters, or equivalent). Mobile phase A was 0.1% AcOH in water. Mobile phase B was 0.1% AcOH in methanol. The flow rate was 0.6 mL/min. The gradient program included a 0.5 min hold at 30% B (the starting conditions), followed by a gradient to 100% B over 2.5 min and a 1 min hold at 100% B. The column was then returned to starting conditions and equilibrated over 1.25 min.
Assay Protocol: Assays were performed at 37° C. at pH=9.0 and involved the use of 0.1 U of FAAH. […] Reaction was terminated after an appropriate time by using protein precipitation treatment with acetonitrile (3:1, v/v).

[2] = system: cortical neurons; assay: neurite growth of embryonic mouse neurons (total neurite length/neuron, MAP2 immunostaining); assay type: cell-based; details: for effect with respect to cortical neurite growth as compared to DHA: FIGS. 1, 2; for dosage at which activity is exhibited as compared to DHA and synaptamide: dosages 10^-5 nM to 10 nM, FIG. 1
Experimental: To obtain embryonic mouse neurons for analysis, pregnant female mice were killed by cervical dislocation after exposure to CO2 inhalation. Embryonic neurons were prepared from E18 or P0 mouse hippocampi or cortex and cultured as described previously (Calderon and Kim, J. Neurochem., 90(4):979-88 (2004), errata in J Neurochem., September; 90(6):1540 (2004)), with slight modification. Briefly, hippocampi or cotices were dissected and dissociated by a method using either 0.25% trypsin (Gibco Invitrogen Corporation, Grand Island, N.Y.) in Hank's balanced salt solution (HBSS) or papain (20-30 U/mL) in dissociation media containing cysteine at 37° C. for 15 min. After the dissociation solution was aspirated off, cells were washed with same volume of HBSS, suspended in neurobasal medium (Gibco) containing 2% B27 supplement (Gibco), 1% glutamine/glutamax mix (1:4) (Gibco), 100 U/ml penicillin (Gibco) and 100 μg/ml streptomycin (Gibco), and seeded on poly-D-lysine chambered slides (Lab-Tek, Naperville, Ill.) at a density of 30,000 cells/cm^2. On the second day after seeding, the cells were treated with fatty acids, synaptamide or one of Compounds 1-50 for 48 h. Docosahexaenoic acid (DHA) and oleic acid (OA) were complexed with fatty acid-free bovine serum albumin (BSA; Sigma, St Louis, Mo.) in the presence of α-tocopherol (Sigma) under an argon atmosphere and darkness to prevent oxidation of the fatty acids. The mixture was mixed with fresh Neurobasal medium containing B27 supplement, glutamine/glutamax mix and antibiotics. Final concentrations of α-tocopherol and BSA in the culture medium were 40 μM and 0.01%, respectively. Alternatively, DHA, OA, synaptamide, or one of Compounds 1-50 were dissolved in DMSO and applied directly together with α-tocopherol. In such case, the final concentration of DMSO is less than 0.005%. All stock solutions were aliquoted under argon and stored at −70° C.
Cells were fixed with […] (Sigma) in PBS (pH 7.4) for 30 min. After permeabilization with 0.1% Triton X-100 (Sigma), cells were blocked for 1 h at 37° C. with PBS containing 10% goat serum (Gibco), and then incubated with the primary antibody against microtubule-associated protein (MAP2, mouse monoclonal 1:250; Sigma). After washing with PBS, cells were incubated with the corresponding Cy2-, Cy3-conjugated secondary antibody (Jackson Immunoresearch Laboratories Inc., West Grove, Pa.). For the nuclear staining, 0.06% 4,6-Diamidino-2-Phenylindole (Sigma) was used. After immunostaining, images were collected using an inverted motorized 1×81 Olympus (Melville, N.Y.) and the neurite length was analyzed with Metamorph software (Molecular Devices Corporation, Downingtown, Pa.). To minimize bias, neurons were evaluated blindly without the knowledge of sample identity. Four to six fields/well were chosen at random and only non-clustered neurons were evaluated to ensure the precision of the measurements. From each well, over 100 neurons were evaluated at 20× magnification for total neurite length/neuron. The data were obtained from triplicate wells and the experiments were repeated at least three times.
FIG. 2 provides graphical results of the data shown in Table 2, expressed as total neurite length per neuron. FIG. 3 provides graphical results of these experiments for compounds 11-50 (having designations as provided in Table 1, above), expressed as relative neurite length as compared to untreated controls. FIG. 4 provides graphical results of these experiments for compounds 1-10 (having designations as provided in Table 1, above), as applied to hippocampal neurons.
An additional assay was performed in which Compounds (A8), 4(A10), and 7(A9) were applied at varying dosages (from 10^−5 nM to 10 nM; 10^−5 nM, 10^−4 nM, 10^−2 nM, 0.1 nM, 1 nM, and 10 nM) as compared to DHA, synaptamide, and oleic acid. Neurite growth was measured at each dosage. Results of this assay are provided at FIG. 1.

[3] = cortical neurons, 10 nM (FIG. 2), 48 h

SMILES: CCCCC/C=C\C/C=C\C/C=C\C/C=C\CCCC(=O)NCCO [AEA, anandamide]
- % remaining ([1]; 0 min): 74%
- % remaining ([1]; 30 min): 1%
- % remaining ([1]; 60 min): 1%

SMILES: CC/C=C\C/C=C\C/C=C\C/C=C\C/C=C\C/C=C\CCC(=O)NCCCCO [Compound 2, (4Z,7Z,10Z,13Z,16Z,19Z)—N-(4-hydroxybutyl)docosa-4,7,10,13,16,19-hexaenamide]
- Neurite Length/Neuron (mean) [2, 3]: 6.9 μm

SMILES: CC/C=C\C/C=C\C/C=C\C/C=C\C/C=C\C/C=C\CCC(=O)NCCCO [Compound 3, (4Z,7Z,10Z,13Z,16Z,19Z)—N-(3-hydroxypropyl)docosa-4,7,10,13,16,19-hexaenamide]
- Neurite Length/Neuron (mean) [2, 3]: 3.8 μm

SMILES: CC/C=C\C/C=C\C/C=C\C/C=C\C/C=C\C/C=C\CCC(=O)NCCN1CCOCC1 [Compound 4, (4Z,7Z,10Z,13Z,16Z,19Z)—N-(2-morpholinoethyl)docosa-4,7,10,13,16,19-hexaenamide]
- Neurite Length/Neuron (mean) [2, 3]: 20.8 μm
- effect with respect to cortical neurite growth as compared to DHA ([2]; cortical neurons): superior effect
- dosage at which activity is exhibited as compared to DHA and synaptamide [2]: activity at significantly lower dosages

SMILES: CC/C=C\C/C=C\C/C=C\C/C=C\C/C=C\C/C=C\CCC(=O)NCCN(C)C [Compound 5, (4Z,7Z,10Z,13Z,16Z,19Z)—N-(2-(dimethylamino)ethyl)docosa-4,7,10,13,16,19-hexaenamide]
- Neurite Length/Neuron (mean) [2, 3]: 6.7 μm

SMILES: CC/C=C\C/C=C\C/C=C\C/C=C\C/C=C\C/C=C\CCC(=O)NCCOC [Compound 6, (4Z,7Z,10Z,13Z,16Z,19Z)—N-(2-methoxyethyl)docosa-4,7,10,13,16,19-hexaenamide]
- Neurite Length/Neuron (mean) [2, 3]: 9.1 μm

SMILES: CC/C=C\C/C=C\C/C=C\C/C=C\C/C=C\C/C=C\CCC(=O)NCCc1ccccc1 [Compound 7, (4Z,7Z,10Z,13Z,16Z,19Z)—N-phenethyldocosa-4,7,10,13,16,19-hexaenamide]
- Neurite Length/Neuron (mean) [2, 3]: 41.8 μm
- effect with respect to cortical neurite growth as compared to DHA ([2]; cortical neurons): superior effect
- dosage at which activity is exhibited as compared to DHA and synaptamide [2]: activity at significantly lower dosages

SMILES: CC/C=C\C/C=C\C/C=C\C/C=C\C/C=C\C/C=C\CCC(=O)NC(C)(C)CO [Compound 8, (4Z,7Z,10Z,13Z,16Z,19Z)—N-(1-hydroxy-2-methylpropan-2-yl)docosa-4,7,10,13,16,19-hexaenamide]
- Neurite Length/Neuron (mean) [2, 3]: 4.5 μm

SMILES: CC/C=C\C/C=C\C/C=C\C/C=C\C/C=C\C/C=C\CCC(=O)N[C@@H](C)CO [Compound 9, (4Z,7Z,10Z,13Z,16Z,19Z)—N—((S)-1-hydroxypropan-2-yl)docosa-4,7,10,13,16,19-hexaenamide]
- Neurite Length/Neuron (mean) [2, 3]: 9.6 μm

SMILES: CC/C=C\C/C=C\C/C=C\C/C=C\C/C=C\C/C=C\CCC(=O)N[C@H](C)CO [Compound 10, (4Z,7Z,10Z,13Z,16Z,19Z)—N—((R)-1-hydroxypropan-2-yl)docosa-4,7,10,13,16,19-hexaenamide]
- Neurite Length/Neuron (mean) [2, 3]: 9.5 μm

SMILES: CC/C=C\C/C=C\C/C=C\C/C=C\C/C=C\C/C=C\CCC(=O)O [DHA, Docosahexaenoic acid, reference compound]
- Neurite Length/Neuron (mean) ([2]; cortical neurons, DHA 100 nM (FIG. 2), 48 h): 14.5 μm

SMILES: CC/C=C\C/C=C\C/C=C\C/C=C\C/C=C\C/C=C\CCC(=O)NCCO [Synaptamide, Docosahexaenoylethanolamide]
- Neurite Length/Neuron (mean) [2, 3]: 29.3 μm
- Neurite Length/Neuron, individual values ([2]; cortical neurons, 10 nM (FIG. 2), 48 h, three individual values): 33.1 μm and 29.2 μm and 25.5 μm
- % remaining ([1]; 0 min): 100%
- % remaining ([1]; 30 min): 5%
- % remaining ([1]; 60 min): 1%
